Experimental findings from ChEMBL document CHEMBL1777682, “NMR evaluation of interactions between substituted-indole and PDZ1 domain of PSD-95” (Bioorg Med Chem Lett, 2011) are described below.

Calls of active or inactive are those of the source. The rule behind the calls is not given here.

For this assay, the target named is Disks large homolog 4 (Homo sapiens) (UniProt P78352). Put plainly: Binding affinity to recombinant 15N-labelled PSD95-PDZ1 domain expressed in Escherichia coli BL21 assessed as chemical shift perturbation by NMR spectra analysis.
Chain of Disks large homolog 4 (Homo sapiens) (P78352 whole entry, looked up, the tested form may be a part): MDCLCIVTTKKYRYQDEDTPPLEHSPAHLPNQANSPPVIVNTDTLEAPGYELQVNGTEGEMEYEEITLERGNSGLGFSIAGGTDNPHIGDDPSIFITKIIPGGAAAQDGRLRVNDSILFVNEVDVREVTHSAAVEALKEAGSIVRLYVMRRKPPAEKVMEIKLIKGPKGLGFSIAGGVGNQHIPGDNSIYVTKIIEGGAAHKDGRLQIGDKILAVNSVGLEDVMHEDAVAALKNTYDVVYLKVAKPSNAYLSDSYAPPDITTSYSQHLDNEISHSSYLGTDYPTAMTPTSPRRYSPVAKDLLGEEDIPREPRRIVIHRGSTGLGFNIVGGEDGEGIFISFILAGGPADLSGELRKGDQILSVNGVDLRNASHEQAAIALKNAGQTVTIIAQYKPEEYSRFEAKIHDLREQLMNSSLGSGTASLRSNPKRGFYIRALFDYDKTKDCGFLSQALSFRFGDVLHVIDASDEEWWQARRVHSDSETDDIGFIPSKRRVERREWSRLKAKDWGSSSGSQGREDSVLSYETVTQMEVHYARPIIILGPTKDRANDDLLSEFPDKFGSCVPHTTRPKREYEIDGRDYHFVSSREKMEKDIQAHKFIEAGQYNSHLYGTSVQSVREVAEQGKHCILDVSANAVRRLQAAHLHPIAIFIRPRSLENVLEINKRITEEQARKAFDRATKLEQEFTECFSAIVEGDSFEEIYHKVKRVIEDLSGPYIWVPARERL

Take `Cc1cc2c(C)c(C(=O)O)[nH]c2cc1C(=O)O`: the outcome was Active.

Regarding `COC(=O)c1cc2c(C)c(C(=O)O)[nH]c2cc1C`, the result was inactive.

As for `Cc1c(C(=O)O)[nH]c2ccc(C(=O)O)cc12`, the result was Active.

Take `Cc1cc2cc(C(=O)O)[nH]c2cc1C(=O)O`: the outcome was inactive.

Take `Cc1cc2[nH]c(C(=O)O)c(C)c2cc1C(=O)O`: the outcome was Active.

As for `CCOC(=O)c1ccc2[nH]c(C(=O)O)c(C)c2c1`, the outcome was inactive.

As to `COC(=O)c1cc2[nH]c(C(=O)O)c(C)c2cc1C`, the outcome was inactive.

Take `Cc1cc2c(C)c(C(=O)O)n(C)c2cc1C(=O)O`: the outcome was inactive.
